Assay results as given in PMC9721424, “Novel N-methylsulfonyl-indole derivatives: biological activity and COX-2/5-LOX inhibitory effect with improved gastro protective profile and reduced cardio vascular risks” (Journal of Enzyme Inhibition and Medicinal Chemistry, 2022).
Values joined by “and” are separate entries in the source; they are usually repeats but may differ in a detail not shown here. Equal entries are not always repeated.

Tested on: not listed separately
Assay: DPPH free radical assay
Assay type: biochemical
Details: 540 nm, 30 min, relative to Trolox
Protocol: Preparation of samples was occurred at the following concentrations: Samples 3a, 4a, 5b, 5d and 5e at final concentrations of 0.5 mg/ml in methanol: DMSO 9:1 v/v. Samples 4b and 4d at final concentrations 0.025 mg/ml in methanol: DMSO 9:1 v/v, sample 5a at final concentrations 0.25 mg/ml in methanol: DMSO 9:1 v/v, Sample 4c, 5c and 4e at final concentrations 0.05 mg/ml in methanol: DMSO 9:1 v/v, sample 3b at final concentration 0.75 mg/ml methanol: DMSO 9:1 v/v. A stock solution of 100 µM concentration of Trolox, a standard used in this experiment, was prepared in methanol from which seven concentrations were prepared, including 50, 40, 30, 20, 15, 10 and 5 µM.
The DPPH (2,2-diphenyl-1-picryl-hydrazyl-hydrate) free radical assay was carried out according to the method of Boly et al. 2016[39]. Briefly, freshly prepared DPPH reagent (100 µl, 0.1% in methanol) was added to 100 µl of the sample on 96 well plates (n = 6). The reaction was incubated at room temp for 30 min in the dark. After completion of the incubation time, the reduction in DPPH colour intensity was measured at 540 nm. Data obtained was represented as means ± SD, according to the following equation, percentage inhibition = [(Average absorbance of blank – average absorbance of the test)/(Average absorbance of blank)] *100. The results were recorded using a microplate reader, FluoStar Omega.
Microsoft Excel® was used to analyse the obtained results. The IC50 values were calculated using Graph pad Prism 6® by converting the concentrations to their logarithmic value and selecting the non-linear inhibitor regression equation (log (inhibitor) vs. normalised response – variable slope equation). The methods used and the final test report (R-SO7320) were obtained from Nawah Scientific.

| SMILES | DPPH test results (µM trolox equivalent/ 1mg sample ± SD) |
| --- | --- |
| COc1ccc(N2CC(=O)S/C2=N\N=C\c2cn(S(C)(=O)=O)c3ccccc23)cc1 [Compound 5e] | 13.22 ± 1.89 µM trolox equivalent/ 1mg sample |

Target: T1, COX-2 (Ovis aries, UniProt P79208)
T1 sequence (P79208 17-603): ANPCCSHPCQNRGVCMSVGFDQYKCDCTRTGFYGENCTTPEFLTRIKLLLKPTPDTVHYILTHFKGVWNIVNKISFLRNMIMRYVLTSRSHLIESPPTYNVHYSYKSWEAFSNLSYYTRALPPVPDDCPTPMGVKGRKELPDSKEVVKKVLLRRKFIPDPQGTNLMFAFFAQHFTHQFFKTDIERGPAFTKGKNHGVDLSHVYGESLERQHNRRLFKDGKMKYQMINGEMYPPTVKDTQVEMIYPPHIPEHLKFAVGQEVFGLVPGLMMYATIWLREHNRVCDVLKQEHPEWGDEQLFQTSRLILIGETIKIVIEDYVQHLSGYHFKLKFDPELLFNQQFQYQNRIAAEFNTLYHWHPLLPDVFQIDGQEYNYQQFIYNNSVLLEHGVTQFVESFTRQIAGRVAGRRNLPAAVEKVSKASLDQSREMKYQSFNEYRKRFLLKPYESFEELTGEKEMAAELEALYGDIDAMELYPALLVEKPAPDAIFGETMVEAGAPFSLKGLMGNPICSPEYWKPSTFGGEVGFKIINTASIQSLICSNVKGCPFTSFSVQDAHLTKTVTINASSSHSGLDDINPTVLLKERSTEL
Assay: COX-2 inhibition, enzyme immune assay (EIA) kit
Assay type: biochemical, ovine
Details: COX-2 selectivity index

| SMILES | S.I (IC50 COX-1/IC50 COX-2) |
| --- | --- |
| COc1ccc(N2CC(=O)S/C2=N\N=C\c2cn(S(C)(=O)=O)c3ccccc23)cc1 [Compound 5e] | 9.72 and 9.73 |

Same assay, conditions: lab report, COX1/COX2

| SMILES | SI |
| --- | --- |
| COc1ccc(N2CC(=O)S/C2=N\N=C\c2cn(S(C)(=O)=O)c3ccccc23)cc1 [Compound 5e] | 9.726 |

Target: T2, 5-LOX enzyme (Homo sapiens, UniProt P09917)
T2 construct: purchased Cayman Chemical K980-100
T2 sequence (P09917 1-674): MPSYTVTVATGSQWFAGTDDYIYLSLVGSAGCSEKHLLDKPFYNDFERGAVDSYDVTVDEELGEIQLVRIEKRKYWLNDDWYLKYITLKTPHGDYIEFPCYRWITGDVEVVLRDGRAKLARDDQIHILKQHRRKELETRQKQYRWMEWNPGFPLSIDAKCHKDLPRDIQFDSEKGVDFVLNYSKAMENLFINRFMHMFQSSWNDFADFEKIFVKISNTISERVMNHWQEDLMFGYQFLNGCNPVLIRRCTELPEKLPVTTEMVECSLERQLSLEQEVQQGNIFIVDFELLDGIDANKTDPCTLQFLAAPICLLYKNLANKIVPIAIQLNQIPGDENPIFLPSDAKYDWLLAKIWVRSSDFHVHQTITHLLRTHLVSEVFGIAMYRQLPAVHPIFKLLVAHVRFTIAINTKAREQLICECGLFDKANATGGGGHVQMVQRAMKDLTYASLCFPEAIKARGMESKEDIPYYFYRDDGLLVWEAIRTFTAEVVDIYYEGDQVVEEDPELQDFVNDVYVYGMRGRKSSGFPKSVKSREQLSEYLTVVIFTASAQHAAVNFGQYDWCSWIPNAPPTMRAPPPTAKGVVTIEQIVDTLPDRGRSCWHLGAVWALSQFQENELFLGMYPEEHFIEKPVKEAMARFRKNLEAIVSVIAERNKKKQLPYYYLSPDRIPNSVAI
Assay: 5-LOX inhibition, Human Lipoxygenase Inhibitor Screening Assay (EIA) kit
Assay type: biochemical
Details: not given
Protocol: The ability of the test compounds to inhibit the 5-LOX enzyme (IC50 value, μM) was detected using the Cayman Human Lipoxygenase Inhibitor Screening Assay (EIA) kit (catalog no. K980-100, Cayman Chemical). The IC50 values of test compounds were measured in µM according to the manufacturer’s instructions and reported method.

| SMILES | IC50 [µM] |
| --- | --- |
| COc1ccc(N2CC(=O)S/C2=N\N=C\c2cn(S(C)(=O)=O)c3ccccc23)cc1 [Compound 5e] | 6.65 ± 0.35 |

Same assay, conditions: conc 0.1 (μM)

| SMILES | 5-LOX %inh [%] |
| --- | --- |
| COc1ccc(N2CC(=O)S/C2=N\N=C\c2cn(S(C)(=O)=O)c3ccccc23)cc1 [Compound 5e] | 11.6 |

Same assay, conditions: conc 1 (μM)

| SMILES | 5-LOX %inh [%] |
| --- | --- |
| COc1ccc(N2CC(=O)S/C2=N\N=C\c2cn(S(C)(=O)=O)c3ccccc23)cc1 [Compound 5e] | 24.1 |

Same assay, conditions: conc 10 (μM)

| SMILES | 5-LOX %inh [%] |
| --- | --- |
| COc1ccc(N2CC(=O)S/C2=N\N=C\c2cn(S(C)(=O)=O)c3ccccc23)cc1 [Compound 5e] | 53 |
| CC(c1cc2ccccc2s1)N(O)C(N)=O (centres unmarked) [Zileuton, reference compound] | 77.1 |

Same assay, conditions: conc 100 (μM)

| SMILES | 5-LOX %inh [%] |
| --- | --- |
| COc1ccc(N2CC(=O)S/C2=N\N=C\c2cn(S(C)(=O)=O)c3ccccc23)cc1 [Compound 5e] | 80.8 |
| CC(c1cc2ccccc2s1)N(O)C(N)=O (centres unmarked) [Zileuton, reference compound] | 92.8 |

Same assay, conditions: lab report

| SMILES | IC50 [µM] |
| --- | --- |
| COc1ccc(N2CC(=O)S/C2=N\N=C\c2cn(S(C)(=O)=O)c3ccccc23)cc1 [Compound 5e] | 6.65 ± 0.35 |

Tested on: not given
Assay: not given
Details: not given

| SMILES | melting point [°C] |
| --- | --- |
| COc1ccc(N2CC(=O)S/C2=N\N=C\c2cn(S(C)(=O)=O)c3ccccc23)cc1 [Compound 5e] | 273 to 275 |

Target: T3, ovine COX-1 (Ovis aries, UniProt P05979)
T3 sequence (P05979 25-600): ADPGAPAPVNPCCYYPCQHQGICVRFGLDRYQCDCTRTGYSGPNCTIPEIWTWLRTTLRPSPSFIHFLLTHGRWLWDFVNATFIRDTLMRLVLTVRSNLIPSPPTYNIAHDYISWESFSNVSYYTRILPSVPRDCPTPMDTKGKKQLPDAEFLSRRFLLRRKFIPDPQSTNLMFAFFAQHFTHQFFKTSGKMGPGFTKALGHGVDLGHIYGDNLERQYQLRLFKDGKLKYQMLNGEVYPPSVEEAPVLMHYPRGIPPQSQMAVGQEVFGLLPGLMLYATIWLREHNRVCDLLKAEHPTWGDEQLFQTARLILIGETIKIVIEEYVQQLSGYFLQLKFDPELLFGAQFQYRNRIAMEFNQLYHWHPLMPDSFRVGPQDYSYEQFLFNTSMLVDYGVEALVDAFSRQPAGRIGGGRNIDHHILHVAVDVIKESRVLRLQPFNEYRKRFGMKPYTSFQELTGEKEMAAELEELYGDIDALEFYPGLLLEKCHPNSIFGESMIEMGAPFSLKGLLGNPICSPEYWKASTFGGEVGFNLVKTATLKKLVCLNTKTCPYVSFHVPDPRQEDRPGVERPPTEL
Assay: COX-1 inhibition, enzyme immune assay (EIA) kit
Details: conc 0.1 (μM)
Source text: Colorimetric enzyme immunoassay (EIA) kits were done to screen for the isozyme-specific inhibition.

| SMILES | COX1 %inh [%] |
| --- | --- |
| COc1ccc(N2CC(=O)S/C2=N\N=C\c2cn(S(C)(=O)=O)c3ccccc23)cc1 [Compound 5e] | 3.76 |

Same assay, conditions: conc 1 (μM)

| SMILES | COX1 %inh [%] |
| --- | --- |
| COc1ccc(N2CC(=O)S/C2=N\N=C\c2cn(S(C)(=O)=O)c3ccccc23)cc1 [Compound 5e] | 13.1 |

Same assay, conditions: conc 10 (μM)

| SMILES | COX1 %inh [%] |
| --- | --- |
| COc1ccc(N2CC(=O)S/C2=N\N=C\c2cn(S(C)(=O)=O)c3ccccc23)cc1 [Compound 5e] | 20 |

Same assay, conditions: conc 100 (μM)

| SMILES | COX1 %inh [%] |
| --- | --- |
| COc1ccc(N2CC(=O)S/C2=N\N=C\c2cn(S(C)(=O)=O)c3ccccc23)cc1 [Compound 5e] | 68.5 |

Same assay, conditions: read-out: IC50 COX-1

| SMILES | IC50 [µM] |
| --- | --- |
| COc1ccc(N2CC(=O)S/C2=N\N=C\c2cn(S(C)(=O)=O)c3ccccc23)cc1 [Compound 5e] | 47.5 ± 1.35 |
